Assay results as given in a melting point compilation (Tetko et al.; mined from patent text by program, amines drawn as free bases though some values may be those of a salt).
Residues, ends and D or L forms follow the SMILES beside them. *: point of attachment. Cbz = O=C(OCc1ccccc1)*; Boc = CC(C)(C)OC(=O)*

Structure (SMILES) | melting point
NC(=O)CCc1ccc(CNC(=O)[C@@H](CCCNC(N)=N[N+](=O)[O-])NC(=O)C(c2ccccc2)c2ccccc2)cc1 | 139 to 140 °C
CCOC(=O)c1ccc(-c2ccc(-c3cccc(OC)c3)c(-c3ccc4c(c3)C(C)(C)CCC4(C)C)c2)cc1 | 116 to 118 °C
CC(C)(C)OC(=O)N1CCN(c2nc(N)nc3nc(N)c(-c4ccccc4)nc23)CC1 | 245 to 246 °C
N=C(NO)c1ccc(-c2ccc(-c3ccc(C(=N)NO)o3)o2)cc1 | 205 to 206 °C
COc1cc2c(c3c1OC(C)(C)C3)C(c1cccc(N3CCNS3(=O)=O)c1)=NC(C)(C)C2 | 145 to 147 °C
Nc1sccc1C(=O)c1ccc(Cl)cc1 | 178 to 180 °C
O=C1OCCN1c1ccc(OC(F)C(F)(F)F)cc1 (configuration not stated) | 74 to 76 °C
C=CC1(CC)OC(=O)c2ccc(Oc3ccc(C(F)(F)F)cc3Cl)cc21 (configuration not stated) | 77 to 79 °C
Cc1ccc(-c2ccccc2)c(O)c1-c1ccccc1 | 279 to 280 °C
CC(=O)OCc1cc([N+](=O)[O-])ccc1N1C(=O)c2ccc(Cl)cc2C1=O | 124 to 125 °C
CC(=O)NC1CCCCC1Sc1ccccc1 (configuration not stated) | 132 to 133 °C
COCn1ncc2cc(C(=O)NN)ccc21 | 141 to 142 °C
C=CCOc1cc(C(=O)O)cc(C(=O)N(C)C)c1 | 93 to 95 °C
Cn1nnc(-c2cccc([N+](=O)[O-])c2)n1 | 105 °C
CCN(CC)C(=O)Nc1ccccc1 | 81 to 85 °C
COc1ccccc1-c1csc(Nc2ccc(C)cn2)n1 | 228 to 230 °C
OCCCC1=NN(c2nccs2)C(O)(c2ccc(Cl)cc2)C1 (configuration not stated) | 146 to 147 °C
CCc1cc(C(F)(C(F)(F)F)C(F)(F)F)cc(C)c1NC(=O)c1cccc(N)c1 | 143 to 145 °C
N#CC1(Cl)C=C(O)C=NC1 (configuration not stated) | 182 to 184 °C
COc1cc(N2CCOCC2)ccc1Nc1nc(Nc2ccc3c(c2)CCC(=O)CC3)ncc1Cl | 212 to 215 °C
CCCCCCCCCCCCCc1cc[nH]c1 | 32.5 to 33.5 °C
COc1cc2c(cc1C(F)(F)F)N(C(=O)Nc1cccs1)CC2 | 240 to 244 °C
CC(C)CC(NC(=O)OCc1ccccc1)C(=O)NC(CCCCNC(=O)OC(C)(C)C)C(=O)O (stereo not drawn) (Cbz-Leu-Lys(Boc)-OH; configuration not given here) | 125 to 128 °C
COC(=O)C(C(=O)C(C)C)=C(N)c1ccc(F)cc1 | 85.8 to 86.6 °C
CCOC(=O)c1cn(-c2nccs2)c2nc(N3C[C@@H](NC)[C@H](OC)C3)ccc2c1=O (relative stereo) | 73 to 76 °C

Structure (SMILES) | melting point
Cc1ccc(-c2noc(CC(F)=C(F)F)n2)cc1 | 46 to 50 °C
CCCCOc1c(-c2cc(C=CC(=O)O)ccc2O)cc(C(C)(C)C)cc1C(C)(C)C | 92 to 94 °C
Fc1ccc(-c2c[nH]c3ccccc23)cc1 | 98 to 100 °C
COC(=O)CC(=O)C=Cc1cc2ccccc2s1 | 105 to 107 °C
CC(C)(C)OC(=O)Cc1nc(Sc2ccccc2)ccc1[N+](=O)[O-] | 104 to 107 °C
COc1ccccc1OC(=O)C(=O)Oc1ccccc1OC | 123 to 126 °C
CC(C)CC(NC(=O)C(Cc1ccccn1)NC(=O)C(Cc1cccc2ccccc12)NC(=O)OCc1ccccc1)C(O)CC(=O)NCCc1ccccn1 (mixture of isomers) | 128 to 133 °C
CCOc1cc(Cn2cc(CCC(=O)O)c(-c3ccccc3)c2)cc(OCc2nc(-c3ccccc3)oc2C)c1 | 126 to 127 °C
O=C1CCN(C2c3ccccc3COc3ccc(Br)cc32)CC1 (configuration not stated) | 196 to 200 °C
COC(=O)Cc1c(C)nc(C)nc1Cl | 53 to 54 °C
O=C1CCc2c1cccc2C(=O)c1ccccc1 | 86 to 88 °C
COc1ccc2cc3c(cc2c1)C(=O)OC3=O | 238 to 240 °C
CCCCCCCCCCCCCCOc1ccc(CN(Cc2ccccn2)S(C)(=O)=O)cc1 | 62 to 63 °C
CC(=O)Nc1c(C)nn(C)c1C | 118 to 119 °C
COc1cc(OC)nc(NC(=O)NS(=O)(=O)c2ncccc2CSC)n1 | 145 to 147 °C
ON=C1CCc2c([nH]c3ccccc23)C1 | 196 °C
CCCCCCCCCCCC(=O)OC1CC(c2ccccc2)NC(c2ccccc2)C1C (configuration not stated) | 56 to 59 °C
COc1ccc(Br)c(C(=O)N2CCN(S(=O)(=O)c3ccc(Br)cc3)CC2)c1 | 180 °C
Cc1cc(Nc2ccc(C(=O)O)cc2)c2[nH]ncc2n1 | 238 to 241 °C
Clc1c2ccccc2nc2cc(-c3ccccc3)ccc12 | 104 to 108 °C
CC(=O)c1c(C(C)C)nn2c(C)cccc12 | 67.5 to 68 °C
Cc1ccccc1-c1cc(C#N)c[nH]1 | 151 to 152 °C
CC(OC(=O)NCC1(CC(=O)O)CCCCC1)OC(=O)C(C)C (configuration not stated) | 63 to 64 °C
COc1ccc(N2CCOC(c3ccc(C(F)(F)F)cc3)C2)c(-c2ccc(N(C)C)cc2)n1 (configuration not stated) | 160 to 161 °C
O=C(c1ccc(F)cc1)C1CCN(CCCC2(c3ccc(F)cc3)OCCO2)CC1 | 62 to 64 °C

Structure (SMILES) | melting point
CNC(=O)Nc1cccc(C(=O)Nc2ccccn2)c1 | 163 to 164 °C
CC(=O)N1CCC(n2cnc3ccc(-c4nnc(C)o4)cc32)CC1 | 228 to 229 °C
O=S(=O)(c1ccccc1)N1CCC(Nc2nc(OCC(F)(F)F)nc(-n3ccnc3)n2)CC1 | 201 to 203 °C
COc1cc(Nc2c(C#N)cnc3cc(OCCCN4CCC(N5CCCCC5)CC4)c(OC)cc23)c(Cl)cc1Cl | 130 to 132 °C
CCc1cccc(C=CC(=O)CCCc2ccccc2)c1NC(=O)CC1c2ccccc2Oc2ccccc21 | 168 to 170 °C
CC(C)(C)C(=O)Oc1ccc(C(=O)c2ccc(OC(=O)C(C)(C)C)cc2OC(=O)C(C)(C)C)cc1 | 94 to 96 °C
O=C(O)Cc1ccc(Cc2n[nH]c3c2c(=O)n(-c2ccccc2)c2ncccc32)cc1 | 297 to 300 °C
Nc1ccn(C2OC(CO)C(O)C2O)c(=O)c1Br (configuration not stated) | 202 to 204 °C
CCc1nc(=O)c2ccccc2n1Cc1ccc(-c2ccccc2C#N)cc1 | 207 to 208 °C
NS(=O)(=O)C1(c2cnn(CC(F)=C(F)F)c(=O)c2-c2ccc(F)cc2)C=CC=CC1 (configuration not stated) | 173 to 175 °C
CCc1nnc(-c2ccc([N+](=O)[O-])cc2)n1-c1ccc(OC)cc1 | 174 °C
CCCCCCCCCCCCNC(=O)c1cc(-c2ccc(OC)cc2)cc(-c2cccc(Cl)c2OCC(=O)O)c1 | 114 to 117 °C
C=CCSC(C(=O)NC(C)=O)C(c1ccccc1)(c1ccccc1)c1ccccc1 (configuration not stated) | 193 to 194 °C
O=C1C(Cc2ccccc2)C(c2ccccc2)Nc2ccccc2N1Cc1ccccc1 (configuration not stated) | 149 to 150 °C
CCCCCS(=O)(=O)NC(=O)/C=C/c1cc(OCC2CC2)nn1Cc1ccc(C(F)(F)F)cc1Cl | 148 to 151 °C
COC(=O)C1=C2c3sccc3SC(Cl)CN2CC(c2ccccc2)=C1 (configuration not stated) | 192 to 196 °C
Cc1nc(-c2ccc(OCc3cccc(Cl)c3)cc2)no1 | 96 to 98 °C
Cn1c2c(c3ccccc31)CCNC2 | > 250 °C
CC(C)=NNc1nc(C(Cl)(Cl)Cl)ns1 | 66 °C
COc1cc(F)ccc1Nc1ccc2c(c1)OCc1cc([N+](=O)[O-])ccc1C2=O | 222 °C
Fc1ccc2c(c1)CC(CN1CCC(c3noc4cc(F)ccc34)CC1)O2 (racemic) | 129 to 130 °C
CCN(CC)C(=O)c1cc2cc(OC)c(OC)cc2c(-c2ccccc2)n1 | 134 °C
CC(O)C(Oc1ccc(NC(=O)NC(=O)c2ccccc2Cl)cc1)c1ccccc1 (configuration not stated) | 142 to 144 °C
CC(=O)OCC1OC(n2c3ncccc3c3c4c(c5c6cccnc6[nH]c5c32)C(=O)N(CO)C4=O)C(OC(C)=O)C(OC(C)=O)C1OC(C)=O (configuration not stated) | > 300 °C
CCOC1=NS(=O)(=O)c2cc(NC=O)ccc21 | 188 to 194 °C

Structure (SMILES) | melting point
COc1ccc(C(NCC(=O)Nc2c(C(C)C)cccc2C(C)C)c2ccc(OC)cc2)cc1 | 84 to 85 °C
COc1c(Cl)cc(F)cc1C=O | 59 to 62 °C
CN1C(=O)N(c2cc(Cl)cc(Cl)c2)C(=O)[C@]12CN(Cc1ccccc1)C[C@H]2c1ccc(C#N)cc1 (relative stereo) | 164 °C
C=CCOc1ccc(C(=O)CC(C)(C#N)c2ccc(OC)cc2OC)cc1 (configuration not stated) | 77.8 to 78.5 °C
CC(C)Oc1ccc(NC=O)cc1C(F)(F)F | 80 to 82 °C
CCCCc1ncc(/C=C(\Cc2cccs2)c2nnn[nH]2)n1Cc1ccc(-c2nnn[nH]2)cc1 | 227 to 230 °C
CCn1cc(C(=O)O)c(=O)c2cc(F)c(N3CCN4CCC3C4)nc21 (configuration not stated) | 228 to 229 °C
COc1ccc(C=C(C#N)C(=O)O)cc1OC | 206 °C
Cc1nn(C)c(SCc2ccccc2)c1[N+](=O)[O-] | 82 to 83 °C
CCOC(=O)C1=C(COCc2nnn(CCNc3ccc(S(=O)(=O)N4CCOCC4)cn3)n2)NC(C)=C(C(=O)OC)C1c1cccc(Cl)c1Cl (configuration not stated) | 112 to 114 °C
Cc1nc2c(N[C@@H]3c4ccccc4C[C@H]3O)cc(C(=O)N(C)C)cn2c1C (relative stereo) | 148 to 149 °C
O=c1[nH]c2ccc(C(F)(F)F)cc2c(-c2cc(Cl)ccc2O)c1CCO | 253 to 255 °C
COc1nc(OC)c(C(C)C)c(C(C#N)c2cc(Cl)cc(Cl)c2)n1 (configuration not stated) | 135 to 136 °C
CS(=O)c1c2ccccc2c(C=O)c2ccccc12 (configuration not stated) | 182 to 184 °C
CCCCCCCCCCCCCCCCCCSC(=O)Nc1ccc(NC(=O)NS(=O)(=O)c2ccc(OC)cc2)cc1 | 195 °C
O=C(Nc1cc(OCCCO/N=C/c2cc(C(F)(F)F)cc(C(F)(F)F)c2)ccc1C(=O)O)c1ccc(OC(F)(F)F)cc1 | 184 to 186 °C
O=C(O)c1cc2cc(O)c(O)cc2nc1C(=O)O | > 300 °C
Cn1cc(C2=C(c3ccncc3)C(=O)OC2=O)c2ccccc21 | 217 to 219 °C
CSC(C)(C)C=NOC(=O)N(C)SN(C)C | 48 to 50 °C
c1ccc(-c2cnc3cc4ccccc4cc3n2)cc1 | 163 °C
COc1ccccc1C(=O)c1cccc2c1ccn2C | 74 °C
NC(=O)[C@H]1CN(c2ccc(C3CCOCC3)c(F)c2)C(=O)O1 | 153 to 156 °C
